# Assay results as given in US10875832B2, “Substituted pyrimidines for treating bacterial infections” (FORGE THERAPEUTICS, INC., priority 2015, dated 2020).
# Assays:
# Assay type in all cases: cell-based
# P. aeruginosa 209 = experiment: MIC by broth microdilution, P. aeruginosa 209; conditions: Pseudomonas aeruginosa, 35° C., 18-24 h
# Description: (§1) Minimal inhibitory concentrations (MIC) were determined by the broth microdilution method in accordance with the Clinical and Laboratory Standards Institute (CLSI) guidelines. In brief, organism suspensions were adjusted to a 0.5 McFarland standard to yield a final inoculum between 3×10^5 and 7×10^5 colony-forming units (CFU)/mL. Drug dilutions and inocula were made in sterile, cation adjusted Mueller-Hinton Broth (Beckton Dickinson). An inoculum volume of 100 μL was added to wells containing 100 μL of broth with 2-fold serial dilutions of drug. All inoculated microdilution trays were incubated in ambient air at 35° C. for 18-24 h. […] Performance of the assay was monitored by the use of laboratory quality-control strains and levofloxacin, a compound with a defined MIC spectrum, in accordance with CLSI guidelines.
# [1] = test system: P. aeruginosa 210 delta mexAB-OprM; experiment: MIC by broth microdilution, P. aeruginosa 210 delta mexAB-OprM; conditions: Pseudomonas aeruginosa, read-out: MIC P. aeruginosa 210 delta mexAB-OprM
# Description: as §1
# [2] = test system: E. coli delta to IC mutant; experiment: MIC by broth microdilution, E. coli delta tolC mutant; conditions: Escherichia coli, read-out: MIC E. coli delta to IC mutant
# Description: as §1
# E. coli imp mutant = experiment: MIC by broth microdilution, E. coli imp mutant; conditions: Escherichia coli, read-out: MIC E. coli imp mutant
# Description: as §1
# S. aureus ATCC 29213 = experiment: MIC by broth microdilution, S. aureus ATCC 29213; conditions: Staphylococcus aureus, ATCC29213; 35° C., 18-24 h
# Description: as §1
# E. coli ATCC 25922 = experiment: MIC by broth microdilution, E. coli ATCC 25922, no FBS; conditions: Escherichia coli, ATCC25922, 35° C., 18-24 h
# Description: as §1
# E. coli BW25113 = experiment: MIC by broth microdilution, E. coli BW25113, no FBS; conditions: Escherichia coli, 35° C., 18-24 h
# Description: as §1
Structure (SMILES),MIC (P. aeruginosa 209) [µg/mL],MIC [1] [µg/mL],MIC [2] [µg/mL],MIC (E. coli imp mutant) [µg/mL],MIC (S. aureus ATCC 29213) [µg/mL],MIC (E. coli ATCC 25922) [µg/mL],MIC (E. coli BW25113) [µg/mL]
"CS(=O)(=O)Cc1nc(COc2ccc(C#CC#Cc3ccccc3)cc2)[nH]c(=O)c1O [Compound 70, 5-hydroxy-6-((methylsulfonyl)methyl)-2-((4-(phenylbuta-1,3-diyn-1-yl)phenoxy)methyl)pyrimidin-4(3H)-one]",> 32,> 32,8 to 32,1 to 8,8 to 32,> 32,> 32
"COC(=O)c1ccc(C#CC#Cc2ccc(NCc3nc[nH]c(=O)c3O)cc2)cc1 [Compound 71, Methyl 4-((4-(((5-hydroxy-6-oxo-1,6-dihydropyrimidin-4-yl)methyl)amino)phenyl)buta-1,3-diyn-1-yl)benzoate]",> 32,> 32,> 32,> 32,> 32,> 32,> 32
"CNC(=O)c1ccc(C#CC#Cc2ccc(NCc3nc[nH]c(=O)c3O)cc2)cc1 [Compound 72, 4-((4-(((5-hydroxy-6-oxo-1,6-dihydropyrimidin-4-yl)methyl)amino)phenyl)buta-1,3-diyn-1-yl)-N-methylbenzamide]",> 32,> 32,< 1,< 1,> 32,< 1,< 1
"O=c1c(O)cncn1CCc1ccc(C#Cc2ccc(CN3CCOCC3)cc2)cc1 [Compound 73, 5-hydroxy-3-(4-((4-(morpholinomethyl)phenyl)ethynyl)phenethyl)-pyrimidin-4(3H)-one]",> 32,> 32,,,> 32,,1 to 8
CN(C)C1CCN(C(=O)c2ccc(C#CC#Cc3ccc(NCc4nc[nH]c(=O)c4O)cc3)cc2)CC1 [Compound 74],> 32,> 32,< 1,1 to 8,> 32,8 to 32,1 to 8
O=C(NCCN1CCCC1)c1ccc(C#CC#Cc2ccc(NCc3nc[nH]c(=O)c3O)cc2)cc1 [Compound 75],> 32,> 32,< 1,1 to 8,> 32,8 to 32,1 to 8
CCN(CC)CCCNC(=O)c1ccc(C#CC#Cc2ccc(NCc3nc[nH]c(=O)c3O)cc2)cc1 [Compound 76],> 32,> 32,< 1,1 to 8,> 32,8 to 32,1 to 8
O=C(c1ccc(C#CC#Cc2ccc(NCc3nc[nH]c(=O)c3O)cc2)cc1)N1CCC(N2CCOCC2)CC1 [Compound 78],> 32,> 32,< 1,< 1,> 32,> 32,1 to 8
"Cc1nc(C(=O)O)c(O)c(=O)n1CC(=O)c1ccc(-c2ccccc2)cc1 [Compound 82, 1-(2-([1,1′-biphenyl]-4-yl)-2-oxoethyl)-5-hydroxy-2-methyl-6-oxo-1,6-dihydro pyrimidine-4-carboxylic acid]",> 32,> 32,8 to 32,1 to 8,> 32,> 32,> 32
"Cc1nc(C(=O)O)c(O)c(=O)n1CC(O)c1ccc(-c2ccccc2)cc1 (stereo not drawn) [Compound 83, 1-(2-([1,1′-biphenyl]-4-yl)-2-hydroxyethyl)-5-hydroxy-2-methyl-6-oxo-1,6-dihydro pyrimidine-4-carboxylic acid]",> 32,> 32,8 to 32,1 to 8,> 32,> 32,> 32
"CCOC(=O)c1nc(C)n(CC(=O)c2ccc(-c3ccccc3)cc2)c(=O)c1O [Compound 84, ethyl 1-(2-([1,1′-biphenyl]-4-yl)-2-oxoethyl)-5-hydroxy-2-methyl-6-oxo-1,6-dihydropyrimidine-4-carboxylate]",> 32,> 32,> 32,> 32,> 32,> 32,> 32
O=C(c1ccc(C#CC#Cc2ccc(NCc3nc[nH]c(=O)c3O)cc2)cc1)N1CC(O)C1 [Compound 86],> 32,> 32,< 1,< 1,> 32,< 1,< 1
O=C(O)c1ccc(C#CC#Cc2ccc(NCc3nc[nH]c(=O)c3O)cc2)cc1 [Compound 87],> 32,> 32,< 1,1 to 8,> 32,1 to 8,1 to 8
O=C(NCCO)c1ccc(C#CC#Cc2ccc(NCc3nc[nH]c(=O)c3O)cc2)cc1 [Compound 88],> 32,> 32,< 1,< 1,> 32,< 1,< 1
CCOC(=O)c1nc(C)n(CC(O)c2ccc(C#Cc3ccccc3)cc2)c(=O)c1O (stereo not drawn) [Compound 89],> 32,> 32,> 32,8 to 32,8 to 32,> 32,> 32
